Experimental data as given in patent US20260284030A1, “METHODS OF TREATING HEART FAILURE” (THE CHILDREN'S MEDICAL CENTER CORPORATION, priority 2022, published 2026).

Key:
DBA/1 J mice with CIA [1] = assay: Echocardiography of LV function and geometry in CIA mice; format: in vivo, mouse; conditions: n=8
From the text: (§1) DBA/1 J mice were purchased from Jackson Laboratory. All mice were kept specific pathogen free. Experimental protocols were approved by the Institutional Animal Care and Use Committee of Boston Children's Hospital (Protocol number: 20-01-4096R). To conduct a time-course study investigating onset and persistence of the cardiac dysfunction in DBA/1 J, the following groups were studied: DBA/1 J with CIA, DBA/1 J age-matched wild type, DBA/1 J with CIA treated with PAD4 inhibitor, DBA/1 J with CIA treated with 0.5% Methylcellulose (vehicle of the PAD4 inhibitor). The PAD4 specific inhibitor JBI-589 was provided by Jubilant Therapeutics (JBI-589, (R)-(3-aminopiperidin-1-yl)(2-(1-(4-fluorobenzyl)-1H-indol-2-yl)-3-methylimidazo[1,2-a]pyridin-7-yl)methanone). Mice received JBI-589 at a dose of 10 mg/kg via oral gavage for 26 consecutive days. JBI-589 was given in suspension formulation prepared using Tween-80 and 0.5% methyl cellulose. For the PAD4 inhibitor trial, mice were paired depending on their RA severity score and randomly allocated to treatment or control group. All recurring events including animal scoring and administration of inhibitor was done at similar times during the day. All groups were age and sex matched and were fed ad libitum with free access to water. […]
B-Mode, M-mode, and Doppler echocardiography were performed in DBA/1 J mice with CIA, DBA/1 J mice with CIA treated with PAD4 inhibitor or saline administration and age-matched DBA/1 J mice at day 0, day 25, day 45 and day 56 for time-course analysis of cardiac function. […] Body temperature was regulated through a heat pad and heart rate measured with an electrocardiogram, both were kept consistent between experimental groups (37° Celsius and 400-500 bpm). Echocardiography images were recorded using a Vevo-3100 imaging system with a 25-55-MHz linear probe (MX550D; VisualSonics, Toronto, Canada). Percentage of ejection fraction was calculated in parasternal long-axis view. M-mode was measured at the papillary muscle level in the short-axis view. […]

DBA/1 J mice with CIA [2] = assay: Collagen induced arthritis (CIA) model, arthritis severity scoring; format: in vivo, mouse; conditions: for arthritis score: CIA mice, 10 mg/kg oral gavage once daily from day 30, n=8
From the text: (§2) DBA/1 J mice were purchased from Jackson Laboratory. All mice were kept specific pathogen free. Experimental protocols were approved by the Institutional Animal Care and Use Committee of Boston Children's Hospital (Protocol number: 20-01-4096R). To conduct a time-course study investigating onset and persistence of the cardiac dysfunction in DBA/1 J, the following groups were studied: DBA/1 J with CIA, DBA/1 J age-matched wild type, DBA/1 J with CIA treated with PAD4 inhibitor, DBA/1 J with CIA treated with 0.5% Methylcellulose (vehicle of the PAD4 inhibitor). The PAD4 specific inhibitor JBI-589 was provided by Jubilant Therapeutics (JBI-589, (R)-(3-aminopiperidin-1-yl)(2-(1-(4-fluorobenzyl)-1H-indol-2-yl)-3-methylimidazo[1,2-a]pyridin-7-yl)methanone). Mice received JBI-589 at a dose of 10 mg/kg via oral gavage for 26 consecutive days. JBI-589 was given in suspension formulation prepared using Tween-80 and 0.5% methyl cellulose. For the PAD4 inhibitor trial, mice were paired depending on their RA severity score and randomly allocated to treatment or control group. All recurring events including animal scoring and administration of inhibitor was done at similar times during the day. All groups were age and sex matched and were fed ad libitum with free access to water. All procedures conform with the NIH Guide for the Care and Use of Laboratory Animals. Experimental protocols were approved by the Institutional Animal Care and Use Committee of Boston Children's Hospital (Protocol number: 20-01-4096R).
DBA/1 J mice aged 8-9 weeks were immunized with an emulsion of 50 μl CFA (Chondrex, Inc.; Catalog no. 7023) and 50 μl of bovine type II collagen (Chondrex, Inc.; catalog no. 20012) injected intra-dermally into the base of the tail on day 0. On day 21, a booster immunization of type II collagen with Freund's incomplete adjuvant (IFA) (catalog no. 7002; Chondrex) was administered intra-dermally at a site proximal to the first injection site. Mice were assessed for development of arthritis using the semi-quantitative, mouse arthritis scoring system provided by Chondrex (chondrex.com). […]

DBA/1 J mice with CIA [3] = assay: Immunostaining of LV cryosections (Collagen I, Ly6G/H3Cit, VWF, TGF-β, alpha smooth muscle actin); format: in vivo, mouse
From the text: as §2
Cryosections of 8-μm were fixed in 4% paraformaldehyde, permeabilized with 0.1% Triton, blocked in 3% BSA, and incubated overnight at 4° C. with the following primary antibodies: Anti-Collagen I (Abcam; ab21286); anti-Ly6G (clone 1A8; BioLegend); anti-H3Cit (Abcam; ab5103); anti-CD31 (BD Pharmingen; 553370); anti-VWF (DakoCytomation; P0226); anti-CD42b (Emfret; M040-0); anti-CD45 (Abcam; ab154885); anti-TGF beta (Abcam; ab66043); anti-alpha smooth muscle actin (Abcam; ab5694), and anti-CD68 (Abcam; ab53444). […]

[4] = system: arthritis in a mouse model; conditions: prophylactic treatment; cited from earlier work
DBA/1 J mice with CIA [5] = assay: Peripheral blood counts (circulating neutrophils); format: in vivo, mouse; conditions: any timepoint
From the text: as §1, with “day.” for “day. All groups were age and sex matched and were fed ad libitum with free access to water.”
Blood was collected from anesthetized mice via the retroorbital sinus into EDTA-coated capillary tubes and was analyzed by a Hemavet 950FS (Drew Scientific) for complete blood counts. […]

Body weight of CIA mice = format: in vivo, mouse; conditions: day 56, n=8
From the text: as §2, with “Animals. […]” for “Animals. Experimental protocols were approved by the Institutional Animal Care and Use Committee of Boston Children's Hospital (Protocol number: 20-01-4096R).”

NET formation = assay: Neutrophil isolation and NETosis assay; format: in vivo, mouse; conditions: CIA mice; n=4; p=0.03
From the text: as §2, with “Animals. […]” for “Animals. Experimental protocols were approved by the Institutional Animal Care and Use Committee of Boston Children's Hospital (Protocol number: 20-01-4096R).”

[6] = system: primary tumor and metastasis; conditions: cancer; cited from earlier work

With `Cc1c(-c2cc3ccccc3n2Cc2ccc(F)cc2)nc2cc(C(=O)N3CCC[C@@H](N)C3)ccn12` [JBI-589, (R)-(3-aminopiperidin-1-yl)(2-(1-(4-fluorobenzyl)-1H-indol-2-yl)-3-methylimidazo[1,2-a]pyridin-7-yl)methanone] the “diastolic function as reflected by the E/A ratio” value (DBA/1 J mice with CIA [1]; CIA mice treated 26 consecutive days, 10 mg/kg once daily oral) was “comparable to healthy mice”, the “E/A ratio, higher than the placebo CIA group” value (DBA/1 J mice with CIA [1]; CIA mice treated 26 consecutive days, 10 mg/kg once daily oral, p<0.0001) was 40% and the “systolic left ventricular function vs vehicle” value (DBA/1 J mice with CIA [1]; CIA mice treated 26 days, p=0.09) was “no difference”. For the same compound, the arthritis score (DBA/1 J mice with CIA [2]; Day 36) was 5±0.8, the arthritis score (DBA/1 J mice with CIA [2]; day 44, median (quartiles)) was 9 (7-11) and the “effect on RA (arthritis)” value (DBA/1 J mice with CIA [2]; twice daily regime (unpublished data)) was “significantly inhibits RA”. The “collagen type 1 deposition in the LV, lower than the vehicle treated control” value (DBA/1 J mice with CIA [3]; CIA mice treated 26 days, n=5, p=0.02) was 5 times, the “myofibroblast concentration (alpha-smooth-muscle actin)” value (DBA/1 J mice with CIA [3]; CIA mice, n=5, p=0.02) was “reduced” and the “deposition of TGF-β in heart tissue” value (DBA/1 J mice with CIA [3]; CIA mice, n=6, p=0.003) was “reduced”. The effect on arthritis [4] was “alleviates arthritis”, the “number of circulating neutrophils vs vehicle” value (DBA/1 J mice with CIA [5]) was “no difference” and the “body weight (health parameter)” value (Body weight of CIA mice) was “improved”. The NET formation (NET formation) was “reduced” and the neutrophil recruitment [6] was “blocking neutrophil recruitment into the primary tumor and metastasis”.
